Assay [1] deals with T1, Tyrosine-protein phosphatase non-receptor type 1 (Homo sapiens, UniProt P18031).
T1 sequence (P18031 whole entry): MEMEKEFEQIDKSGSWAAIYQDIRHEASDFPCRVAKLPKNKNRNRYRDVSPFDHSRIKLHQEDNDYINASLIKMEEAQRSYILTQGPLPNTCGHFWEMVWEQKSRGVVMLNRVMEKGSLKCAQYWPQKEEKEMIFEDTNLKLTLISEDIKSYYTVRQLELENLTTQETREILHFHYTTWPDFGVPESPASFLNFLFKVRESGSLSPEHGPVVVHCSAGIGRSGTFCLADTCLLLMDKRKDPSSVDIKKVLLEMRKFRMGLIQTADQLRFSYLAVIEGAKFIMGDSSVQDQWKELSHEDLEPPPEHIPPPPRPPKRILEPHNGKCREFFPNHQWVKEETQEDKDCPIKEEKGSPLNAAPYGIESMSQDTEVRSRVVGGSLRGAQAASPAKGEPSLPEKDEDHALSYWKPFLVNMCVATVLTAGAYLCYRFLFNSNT
The experiment in a line: Compound concentration that cause 50% inhibition of protein-tyrosine phosphatase 1B (PTP1B).

Assay [2] concerns the target T1, Tyrosine-protein phosphatase non-receptor type 1. The experiment in a line: Compound was evaluated for the binding affinity against protein-tyrosine phosphatase 1B (PTP1B).

pIC50, pKi: −log10 of the molar value. Peptide text beside a SMILES is read from it. * marks the point of attachment. X1 = O=C(O)C(C(=O)O)*

We go through four compounds from ChEMBL document CHEMBL1130924, “Potent inhibition of protein-tyrosine phosphatase-1B using the phosphotyrosyl mimetic fluoro-O-malonyl tyrosine (FOMT)” (Bioorg Med Chem Lett, 1998).

With `N[C@@H](Cc1ccc(OC(F)(C(=O)O)C(=O)O)cc1)C(=O)O` [FLUOROMALONYL TYROSINE], the pIC50 in assay [1] was 6.00.
In turn, `N[C@@H](Cc1ccc(OC(C(=O)O)C(=O)O)cc1)C(=O)O` had a pIC50 in assay [1] of 5.00.
In assay [2], `CC(C)C[C@@H]1NC(=O)[C@H](Cc2ccc(OC(F)(C(=O)O)C(=O)O)cc2)NC(=O)[C@@H](CCC(=O)O)NC(=O)[C@H](CC(=O)O)NC(=O)[C@@H](C)NC(=O)[C@H](CC(=O)O)NC(=O)CSCC(C(N)=O)NC1=O` (some centres undefined) showed a pKi of 6.77.
Regarding `CC(=O)N[C@@H](CC(=O)O)C(=O)N[C@@H](C)C(=O)N[C@@H](CC(=O)O)C(=O)N[C@@H](CCC(=O)O)C(=O)N[C@@H](Cc1ccc(OC(C(=O)O)C(=O)O)cc1)C(=O)N[C@@H](CC(C)C)C(N)=O` (Ac-DADEY(X1)L-NH2), in assay [2], the pKi was 4.89.
